Results from patent US20090088574A1, “CRYSTAL OF 1,2-DIHYDROPYRIDINE COMPOUND (TYPE IV)” (EISAI R&D MANAGEMENT CO., LTD., priority 2005, published 2009).

Key:
[1] = Physical stability in mixing operation in the presence of water or water-ethanol (1:1) mixed solution (powder X-ray diffraction before/after); assay type: physicochemical; details: mixing in agate mortar at room temperature for a few minutes with dropwise water or water-ethanol (1:1) mixed solution, dried at about 60° C. for 2 to 3 hours
Experimental: Physical Stability in Mixing Operation in the Presence of Water or Water-Ethanol (1:1) Mixed Solution
About 60 to 150 mg of crystals obtained in Reference Example A1 (Anhydrous form II) and crystals obtained in Example 1 (Crystal form IV) were placed in an agate mortar, and the mixing operation was carried out at room temperature for a few minutes while the dropwise addition of water (or water-ethanol (1:1) mixed solution) continues. Subsequently, the crystals were dried at about 60° C. for 2 to 3 hours. The powder X-ray diffraction of the crystals obtained and crystals of before mixing operation were each measured under the following measurement conditions.
D8 DISCOVER with GADDS manufactured by Bruker AXS Ltd.
Tube voltage: 40 kV Tube current: 200 mA Scanning range (2θ): 5 to 40° Collimator: 0.3 mm double slit
The powder X-ray diffraction pattern of Anhydrous form II before and after mixing operation is shown in FIG. 3, and the powder X-ray diffraction pattern of Crystal form IV is shown in FIG. 4. The mixing operation of Anhydrous form II in the presence of water was performed twice.

[2] = Chargeability (static potential of the powder after stirring); assay type: physicochemical; details: about 1 g stirred for 30 minutes in weighing bottle with fluoroplastic-coated stirring bar
Experimental: About 1 g of respective compounds is weighed into a weighing bottle (diameter of 35 mm). A stirring bar [fluoroplastic (tetrafluoroethylene resin) coating; 20 mm] is placed in the bottle and after the lid is in place, the powders are stirred for 30 minutes. The lid is opened at the same time that stirring is stopped; and the static potential of the powder is measured using a static potential measuring instrument.
STATIRON-DZ3 manufactured by Shishido Electrostatic, Ltd.

AMPA receptor = details: see Patent Document 1 (WO/JP01/96308); cited from earlier work

Row | Structure (SMILES) | change of crystal form in mixing operation (physical stability) [1] | static potential of the powder (chargeability) [2] | antagonistic action against AMPA receptor (AMPA receptor)
1 | N#Cc1ccccc1-c1cc(-c2ccccn2)cn(-c2ccccc2)c1=O [Example 1, 3-(2-Cyanophenyl)-5-(2-pyridyl)-1-phenyl-1,2-dihydopyridin-2-one] | do not change their crystal forms |  | 
2 | N#Cc1ccccc1-c1cc(-c2ccccn2)cn(-c2ccccc2)c1=O [Reference Example A1, 3-(2-cyanophenyl)-5-(2-pyridyl)-1-phenyl-1,2-dihydropyridin-2-one] | change their crystal forms | 70-100 V | 
3 | N#Cc1ccccc1-c1cc(-c2ccccn2)cn(-c2ccccc2)c1=O [compound (1), 3-(2-cyanophenyl)-5-(2-pyridyl)-1-phenyl-1,2-dihydropyridin-2-one] |  |  | significant antagonistic action
